Data published in ChEMBL document CHEMBL1143186, “Total synthesis and evaluation of [18F]MHMZ” (Bioorg Med Chem Lett, 2008).

Key:
[1] = target: 5-hydroxytryptamine receptor 2A (Rattus norvegicus, UniProt P14842); experiment: Displacement of [3H]MDL from rat 5HT2A receptor expressed in GF62 cells; format: cell-based
Nucleic Acid [2] = experiment: Ratio of drug level in caudate-putamen to cerebellum in rat; format: ADME, tissue-based; conditions: in vitro
Nucleic Acid [3] = experiment: Ratio of drug level in laminae 1-4 region to cerebellum in rat; format: ADME, tissue-based; conditions: in vivo
Brain [4] = experiment: Drug level in rat brain laminae 1-4 region; format: ADME, tissue-based; conditions: in vivo
[5] = Metabolic stability in rat plasma assessed as unmetabolized fraction after 10 mins; format: ADME, cell-free; conditions: read-out: Stability
Caudate-putamen = experiment: Drug level in rat brain caudate-putamen; format: ADME, tissue-based; conditions: in vivo
Brain [6] = experiment: Drug level in rat brain lamina 5 region; format: ADME, tissue-based; conditions: in vivo
[7] = Metabolic stability in rat plasma assessed as unmetabolized fraction after 60 mins; format: ADME, cell-free; conditions: read-out: Stability
Laminae = experiment: Drug level in rat brain laminae 6a + 6b region; format: ADME, tissue-based; conditions: in vivo
[8] = Metabolic stability in rat plasma assessed as unmetabolized fraction after 30 mins; format: ADME, cell-free; conditions: read-out: Stability
[9] = Metabolic stability in rat plasma assessed as unmetabolized fraction after 5 mins; format: ADME, cell-free; conditions: read-out: Stability
Nucleic Acid [10] = experiment: Ratio of drug level in laminae 6a + 6b region to cerebellum in rat; format: ADME, tissue-based; conditions: in vitro
Nucleic Acid [11] = experiment: Ratio of drug level in lamina 5 region to cerebellum in rat; format: ADME, tissue-based; conditions: in vivo
[12] = target: 5-hydroxytryptamine receptor 2A (Homo sapiens, UniProt P28223); experiment: Binding affinity to 5HT2A receptor
Chain of 5-hydroxytryptamine receptor 2A (Homo sapiens, UniProt P28223) (P28223 whole entry): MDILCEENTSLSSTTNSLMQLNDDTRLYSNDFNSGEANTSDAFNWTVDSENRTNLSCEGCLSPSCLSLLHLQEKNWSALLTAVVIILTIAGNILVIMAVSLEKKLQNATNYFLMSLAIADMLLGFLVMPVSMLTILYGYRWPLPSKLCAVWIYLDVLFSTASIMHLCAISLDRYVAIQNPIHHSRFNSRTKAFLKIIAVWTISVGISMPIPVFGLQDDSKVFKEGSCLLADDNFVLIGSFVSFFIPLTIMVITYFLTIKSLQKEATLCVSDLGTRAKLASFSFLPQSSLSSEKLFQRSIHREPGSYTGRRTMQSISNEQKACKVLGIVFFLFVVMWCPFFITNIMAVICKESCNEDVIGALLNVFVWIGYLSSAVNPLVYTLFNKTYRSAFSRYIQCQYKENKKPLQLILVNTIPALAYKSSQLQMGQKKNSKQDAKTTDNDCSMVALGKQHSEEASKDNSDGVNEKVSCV

Chain of 5-hydroxytryptamine receptor 2A (Rattus norvegicus, UniProt P14842) (P14842 whole entry): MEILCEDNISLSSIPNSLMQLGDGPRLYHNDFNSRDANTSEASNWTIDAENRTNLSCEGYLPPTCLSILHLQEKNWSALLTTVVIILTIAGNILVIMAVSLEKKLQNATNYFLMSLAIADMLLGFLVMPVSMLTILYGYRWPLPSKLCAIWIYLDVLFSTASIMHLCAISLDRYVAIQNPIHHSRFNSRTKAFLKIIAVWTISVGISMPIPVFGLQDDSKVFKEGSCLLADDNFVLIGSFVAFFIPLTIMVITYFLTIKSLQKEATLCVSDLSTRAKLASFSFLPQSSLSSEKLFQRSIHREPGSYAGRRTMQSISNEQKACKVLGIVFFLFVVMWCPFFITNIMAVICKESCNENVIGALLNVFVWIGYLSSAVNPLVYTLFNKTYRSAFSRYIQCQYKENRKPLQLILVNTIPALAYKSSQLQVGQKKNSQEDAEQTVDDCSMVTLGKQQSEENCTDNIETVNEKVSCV

Ki [1] [nM]	Ratio (Nucleic Acid [2])	Ratio (Nucleic Acid [3])	Drug uptake (Brain [4]) [pmol/mm3]	remaining at 10 min [5] [%]	Drug uptake (Caudate-putamen) [pmol/mm3]	Drug uptake (Brain [6]) [pmol/mm3]	remaining at 1 h [7] [%]	Drug uptake (Laminae) [pmol/mm3]	remaining at 0.5 h [8] [%]	remaining at 5 min [9] [%]	Ratio (Nucleic Acid [10])	Ratio (Nucleic Acid [11])	Ki [12] [nM]	SMILES
9														COc1c(OCCF)cccc1C(O)C1CCN(CCc2ccc(F)cc2)CC1 (stereo not given)
	19.2	26.9	23.3	32	16.8	51.6	7	27.27	16	43	31.4	59.5		COc1c(OCC[18F])cccc1C(O)C1CCN(CCc2ccc(F)cc2)CC1 (stereo not given)
0.74													0.13	O=C(c1ccc(F)cc1)C1CCN(CCn2c(=S)[nH]c3ccccc3c2=O)CC1 [ALTANSERIN]
